Experimental findings from patent US12595230B2, “Substituted 6,7-dihydro-5H-benzo[7]annulene compounds and their derivatives, processes for their preparation and therapeutic uses thereof” (Sanofi, priority 2020, dated 2026) are described below.

The target in this assay is T1, ERα (Homo sapiens, UniProt P03372).
T1 construct: host or cells: MCF7
T1 sequence (P03372 1-595): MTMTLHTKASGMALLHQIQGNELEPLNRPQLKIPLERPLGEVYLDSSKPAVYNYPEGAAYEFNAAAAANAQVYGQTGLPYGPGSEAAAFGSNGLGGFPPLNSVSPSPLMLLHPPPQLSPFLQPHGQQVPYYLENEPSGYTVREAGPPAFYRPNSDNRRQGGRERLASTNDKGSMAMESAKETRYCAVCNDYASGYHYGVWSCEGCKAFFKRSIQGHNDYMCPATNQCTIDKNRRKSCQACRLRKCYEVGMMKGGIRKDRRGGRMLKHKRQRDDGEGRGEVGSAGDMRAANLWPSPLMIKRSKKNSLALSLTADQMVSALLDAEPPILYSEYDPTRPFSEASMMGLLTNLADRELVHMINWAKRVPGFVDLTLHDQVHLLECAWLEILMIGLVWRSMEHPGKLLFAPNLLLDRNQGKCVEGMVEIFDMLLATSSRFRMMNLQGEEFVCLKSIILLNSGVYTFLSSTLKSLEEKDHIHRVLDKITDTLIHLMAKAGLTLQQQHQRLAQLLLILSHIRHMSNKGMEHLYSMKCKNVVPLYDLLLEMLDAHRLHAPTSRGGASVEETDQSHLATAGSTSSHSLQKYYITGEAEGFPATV
The assay can be described thus: Estrogen receptor degradation activity: breast cancer cell ERα in cell western assay (MCF7 cells). As to conditions: for % Degradation At 0.3 μM: 4 hours, relative to fulvestrant 0.1 μM positive control; for DC50: 4 hours post compound addition, concentration which degrades 50% of the estrogen receptor, read-out: Degradation IC50. It is filed as cell-based. On the procedure: Test: Estrogen Receptor Degradation Activity Said test involves measuring the in vitro degradation activity of the compounds of the Table 1a. The measurements of the degradation activities were made using a breast cancer cell ERα in cell western assay as described hereunder. MCF7 cells (ATCC) were seeded in 384 wells microplate (collagen coated) at a concentration of 10000 cells/30 μL per well in red phenol free MEM alpha medium (invitrogen) containing 5% charcoal dextran striped FBS. The following day, 9 points serial 1:5 dilution of each compound was added to the cells in 2.5p L at final concentrations ranging from 0.3-0.0000018 μM (in table 2), or 0.1 μM for fulvestrant (using as positive control). At 4 hours post compound addition the cells were fixed by adding 25 μL of formalin (final concentration 5% formalin containing 0.1% triton) for 10 minutes at room temperature and then washed twice with PBS. Then, 50 μL of LI-COR blocking buffer containing 0.1% Triton was added to plate for 30 minutes at room temperature. LI-COR blocking buffer was removed and cells were incubated overnight at cold room with 50 μL anti-ER rabbit monoclonal antibody (Thermo scientific MA1-39540) diluted at 1:1000 in LI-COR blocking buffer containing 0.1% tween-20. Wells which were treated with blocking buffer but no antibody were used as background control. Wells were washed twice with PBS (0.1% tween-20) and incubated at 37° C. for 60 minutes in LI-COR (0.1% tween-20) containing goat anti-rabbit antibody Alexa 488 (1:1000) and Syto-64 a DNA dye (2 μM final concentration). Cells were then washed 3 times in PBS and scanned in ACUMEN explorer (TTP-Labtech). Integrated intensities in the green fluorescence and red fluorescence were measured to determine the levels of ERα and DNA respectively. The degradation activity with respect to estrogen receptors in this test is given by the concentration which degrades 50% of the estrogen receptor (or IC50) in nM. […] DMSO−fulvestrant)).

On to `O=C(O)c1ccc2c(c1)CCCC(c1cccc(C(F)(F)F)c1Cl)=C2c1ccc(CC2CN(CCC(F)(F)F)C2)cc1` [Example 257, 8-(2-chloro-3-(trifluoromethyl)phenyl)-9-(4-((1-(3,3,3-trifluoropropyl)azetidin-3-yl)methyl)phenyl)-6,7-dihydro-5H-benzo[7]annulene-3-carboxylic acid], for which the “% Degradation At 0.3 μM” value was 83% and the DC50 came out at 0.7 nM.
In the same order, the values of `O=C(O)c1ccc2c(c1)CCCC(c1c(F)cccc1Cl)=C2c1ccc(CC2CN(CCCF)C2)cc1` [Example 220, 8-(2-chloro-6-fluorophenyl)-9-(4-((1-(3-fluoropropyl)azetidin-3-yl)methyl)phenyl)-6,7-dihydro-5H-benzo[7]annulene-3-carboxylic acid] are 87% and 0.3 nM.
For `O=C(O)c1ccc2c(c1)CCCC(c1ccc(F)cc1C(F)(F)F)=C2c1ccc(CC2CN(CCCF)C2)cc1` [Example 26, 8-(4-fluoro-2-(trifluoromethyl)phenyl)-9-(4-((1-(3-fluoropropyl)azetidin-3-yl)methyl)phenyl)-6,7-dihydro-5H-benzo[7]annulene-3-carboxylic acid], the “% Degradation At 0.3 μM” value is 92% and the DC50 is 0.3 nM.
In the same order, the values of `O=C(O)c1ccc2c(c1)CCCC([C@@H]1C[C@H]1C1CCC(F)(F)CC1)=C2c1ccc(CC2CN(CCCF)C2)cc1` [Example 331, 8-((1R,2S)-2-(4,4-difluorocyclohexyl)cyclopropyl)-9-(4-((1-(3-fluoropropyl)azetidin-3-yl)methyl)phenyl)-6,7-dihydro-5H-benzo[7]annulene-3-carboxylic acid] are 77% and 10.7 nM.
With `Cc1cccc(C2=C(c3ccc(CC4CN(CCCF)C4)cc3)c3ccc(C(=O)O)cc3CCC2)c1Cl` [Example 30, 8-(2-chloro-3-methylphenyl)-9-(4-((1-(3-fluoropropyl)azetidin-3-yl)methyl)phenyl)-6,7-dihydro-5H-benzo[7]annulene-3-carboxylic acid], the “% Degradation At 0.3 μM” value was 94% and the DC50 was found to be 0.4 nM.
In the case of `CC1CCc2cc(C(=O)O)ccc2C(c2ccc(CC3CN(CCCF)C3)cc2)=C1c1ccc(Cl)cc1` (single isomer, unassigned) [Example 327, 8-(4-chlorophenyl)-9-(4-((1-(3-fluoropropyl)azetidin-3-yl)methyl)phenyl)-7-methyl-6,7-dihydro-5H-benzo[7]annulene-3-carboxylic acid], the “% Degradation At 0.3 μM” value is 86% and the DC50 is 4.7 nM.
Regarding `Cl.O=C(O)c1ccc2c(c1)CCCC(C1CCCC1)=C2c1ccc(CC2CN(CCCF)C2)cc1` [Example 6, 8-cyclopentyl-9-(4-((1-(3-fluoropropyl)azetidin-3-yl)methyl)phenyl)-6,7-dihydro-5H-benzo[7]annulene-3-carboxylic acid], the “% Degradation At 0.3 μM” value is 82% and the DC50 was 0.8 nM.
In the case of `Cl.O=C(O)c1ccc2c(c1)CCCC(c1ccc(F)cc1Cl)=C2c1ccc(CC2CN(CCCF)C2)cc1` [Example 8, 8-(2-chloro-4-fluorophenyl)-9-(4-((1-(3-fluoropropyl)azetidin-3-yl)methyl)phenyl)-6,7-dihydro-5H-benzo[7]annulene-3-carboxylic acid], the “% Degradation At 0.3 μM” value was found to be 92% and the DC50 stood at 0.4 nM.
In the same order, the values of `Cl.O=C(O)c1ccc2c(c1)CCCC(c1ccc(Cl)c(Cl)c1)=C2c1ccc(CC2CN(CCCF)C2)cc1` [Example 207, 8-(3,4-dichlorophenyl)-9-(4-((1-(3-fluoropropyl)azetidin-3-yl)methyl)phenyl)-6,7-dihydro-5H-benzo[7]annulene-3-carboxylic acid hydrochloride] are 92% and 1.1 nM.
For `Cc1cc(C2=C(c3ccc(Cl)cc3Cl)CCCc3cc(C(=O)O)ccc32)ccc1CC1CN(CCCF)C1.Cl` [Example 48, 8-(2,4-dichlorophenyl)-9-(4-((1-(3-fluoropropyl)azetidin-3-yl)methyl)-3-methylphenyl)-6,7-dihydro-5H-benzo[7]annulene-3-carboxylic acid], the “% Degradation At 0.3 μM” value is on record as 86% and the DC50 is 0.5 nM.
On to `O=C(O)c1ccc2c(c1)CCCC(c1cccc(C(F)(F)F)c1F)=C2c1ccc(CC2CN(CCC(F)F)C2)cc1` [Example 288, 9-(4-((1-(3,3-difluoropropyl)azetidin-3-yl)methyl)phenyl)-8-(2-fluoro-3-(trifluoromethyl)phenyl)-6,7-dihydro-5H-benzo[7]annulene-3-carboxylic acid], for which the “% Degradation At 0.3 μM” value came to 81% and the DC50 amounted to 0.5 nM.
In the case of `Cc1c(F)cccc1C1=C(c2ccc(CC3CN(CCCF)C3)cc2)c2ccc(C(=O)O)cc2CCC1` [Example 28, 8-(3-fluoro-2-methylphenyl)-9-(4-((1-(3-fluoropropyl)azetidin-3-yl)methyl)phenyl)-6,7-dihydro-5H-benzo[7]annulene-3-carboxylic acid], the “% Degradation At 0.3 μM” value is recorded as 93% and the DC50 worked out at 0.4 nM.
In the case of `Cl.O=C(O)c1ccc2c(c1)CCCC(c1c(F)cc(F)cc1C(F)F)=C2c1ccc(CC2CN(CCCF)C2)cc1` [Example 284, 8-(2-(difluoromethyl)-4,6-difluorophenyl)-9-(4-((1-(3-fluoropropyl)azetidin-3-yl)methyl)phenyl)-6,7-dihydro-5H-benzo[7]annulene-3-carboxylic acid hydrochloride], the “% Degradation At 0.3 μM” value came out at 96% and the DC50 was 0.3 nM.
In the same order, the values of `COc1ccc(C2=C(c3ccc(CC4CN(CCCF)C4)cc3)c3ccc(C(=O)O)cc3CCC2)cn1` [Example 18, 9-(4-((1-(3-fluoropropyl)azetidin-3-yl)methyl)phenyl)-8-(6-methoxypyridin-3-yl)-6,7-dihydro-5H-benzo[7]annulene-3-carboxylic acid] are 95% and 1.6 nM.
In the same order, the values of `O=C(O)c1ccc2c(c1)CCCC(c1ncc(Cl)cc1F)=C2c1ccc(CC2CN(CCCF)C2)cc1` [Example 219, 8-(5-chloro-3-fluoropyridin-2-yl)-9-(4-((1-(3-fluoropropyl)azetidin-3-yl)methyl)phenyl)-6,7-dihydro-5H-benzo[7]annulene-3-carboxylic acid] are 92% and 6.5 nM.
As for `O=C(O)c1ccc2c(c1)CCCC(c1ccc(Cl)cc1C(F)(F)F)=C2c1ccc(CC2CN(CCC(F)F)C2)cc1` [Example 289, 8-(4-chloro-2-(trifluoromethyl)phenyl)-9-(4-((1-(3,3-difluoropropyl)azetidin-3-yl)methyl)phenyl)-6,7-dihydro-5H-benzo[7]annulene-3-carboxylic acid], the “% Degradation At 0.3 μM” value is listed as 86% and the DC50 was determined as 0.3 nM.
In the same order, the values of `O=C(O)c1ccc2c(c1)CCC(C1CC1)C(c1ccc(Cl)cc1)=C2c1ccc(CC2CN(CCCF)C2)cc1` (racemic) [Example 324, 8-(4-chlorophenyl)-7-cyclopropyl-9-(4-((1-(3-fluoropropyl)azetidin-3-yl)methyl)phenyl)-6,7-dihydro-5H-benzo[7]annulene-3-carboxylic acid] are 86% and 0.8 nM.
Regarding `Cc1cc(F)ccc1C1=C(c2ccc(CC3CN(CCC(F)F)C3)cc2)c2ccc(C(=O)O)cc2CCC1` [Example 279, 9-(4-((1-(3,3-difluoropropyl)azetidin-3-yl)methyl)phenyl)-8-(4-fluoro-2-methylphenyl)-6,7-dihydro-5H-benzo[7]annulene-3-carboxylic acid], the “% Degradation At 0.3 μM” value was found to be 84% and the DC50 worked out at 0.2 nM.
For `C[C@H]1CC[C@@H](C2=C(c3ccc(CC4CN(CCCF)C4)cc3)c3ccc(C(=O)O)cc3CCC2)CC1` [Example 14, 9-(4-((1-(3-fluoropropyl)azetidin-3-yl)methyl)phenyl)-8-((1s,4s)-4-methylcyclohexyl)-6,7-dihydro-5H-benzo[7]annulene-3-carboxylic acid], the “% Degradation At 0.3 μM” value is 80% and the DC50 was 0.8 nM.
